From patent US4938897A (Kureha Kagaku Kogyo Kabushiki Kaisha, priority 1985, dated 1990)

Columns and labels:
[1] = Fluorescent determination (emission wave length); assay type: physicochemical; details: for emitted light wave length: ethyl acetate
From the text: As a result of fluorescent determination at a wave length of excitation light of 356 nm, the emitted light of 520 nm in wave length with ethyl acetate was observed.
As a result of fluorescent determination at a wave length of excitation light of 357 nm, the emitted light of 525 nm in wave length of this substance with ethyl acetate was observed.
Onto a chromatographic column prepared by filling 400 g of silica gel (made by Merck Co. under the name of Art 7734) into a glass tube of 36 mm in inner diameter and 865 mm in length by using chloroform, a solution of 12 g of the crude product dissolved in 50 ml of chloroform was charged, and the absorbed product was subjected to elution by a flow of chloroform at a flow rate of 7 ml/min, thereby 1400 ml of a fraction showing one spot on the chromatogram were obtained. By condensing the fraction, 9 g of wet product were obtained. The wet product was dissolved in 30 ml of chloroform, and after adding 50 ml of hexane to the prepared solution, the mixture was cooled while stirring thereof, however, since no crystal was precipitated therefrom, the solvent was distilled off therefrom by using an evaporator and the residue was dried under vacuum to obtain 7 g of a solid, fluorescent substance in a yield of 68.2%. […] Its emission fluorescence was 521 nm by the excitation light of 358 nm.

3T3 cells = test: Suppression of proliferation of mouse fibroblasts (3T3), Trypan blue living cell count; assay type: cell-based; details: 5 μg/ml
Protocol: (§1) The activity of one of the present substances, 3-dansyloxyestradiol-17β-[[4-[p-{bis(2-chloroethyl)amino}phenyl]butyryloxy]]acetate in suppressing the proliferation of (1) the fibroblasts of mouse (3T3) and (2) transformed fibroblasts of mouse by SV-40 virus (3T3 SV-40) was studied by in vitro tests as follows:
(§2) Into a culture medium consisting of 90% by weight of DALBECCO MEM and 10% of bovine foetus serum, a solution of the test substance in dimethylsulfoxide at a rate of 5 μg/ml was added (dimethylsulfoxide being 1% of the culture medium). After adjusting the pH of the three culture media respectively to 6.5, 7.0 and 7.8, the target cells were implanted into each culture medium at a rate of 2×10^4 cells/ml, and the culture media were incubated at 37° C. in an atmosphere of 5% of carbon dioxide for 3 and 6 days. After ending the incubation, the number of living cells which were not dyed with Trypan blue enumerated in the cultured medium to calculate the rate of suppression of the proliferation of the fibroblasts as follows: [formula] where Nc is the number of the living fibroblasts in control group and Nt is the number of living fibroblasts in the test group both in the unit area.
(§3) The activity of one of the present substance, 3-dansyloxyestradiol-17β-[[2-[p-{bis(2-chloroethyl)amino}phenyl]acetoxy]]acetate in suppressing the proliferation of mouse fibroblasts (3T3) and SV-40 virus-transformed fibroblasts (3T3 SV-40) was examined by the same method as in Example 4 except for (1) the days of incubation of 3 and 5 days instead of 3 and 6 days in Example 4 and (2) the pH of the culture medium of 6.7 instead of 6.7, 7.0 and 7.8 in Example 4.

3T3 SV-40 cells = test: Suppression of proliferation of mouse fibroblasts transformed by SV-40 virus (3T3 SV-40), Trypan blue living cell count; assay type: cell-based; details: for Rate of suppression (%): 3T3 SV-40 cells, 5 μg/ml
Protocol: as §1, §2, §3

FLOW 4000 cell = test: Suppression of proliferation of human normal renal cells (FLOW 4000); assay type: cell-based; details: 5 μg/ml, 37° C.
Protocol: as §2
(§4) The activity of one of the present substance, 3-dansyloxyestradiol-17β-[[4-[p-{bis(2-chloroethyl)amino}phenyl]butyryloxy]]acetate, in suppressing the proliferation of (1) human nomal renal cells (FLOW 4000) and (2) human renal cancer cells (RC) was examined as follows:
(§5) Into the same culture medium as in Example 4, a solution of the test substance dissolved in dimethylsulfoxide was added at a rate of 5 μg/ml (dimethylsulfoxide being 1% of the culture medium), and after adjusting the three culture media respectively to pH of 6.5, 7.0 and 7.8, the cells were implanted into each culture medium at a rate of 2×10^4 cells/ml, and the culture media implanted were incubated for 6 days at 37° C. in an atmosphere of 5% of carbon dioxide. The rate of suppression of the proliferation of the implanted cells was calculated by the same formula as in Example 4, the results being shown in Table 2.

RC cell = test: Suppression of proliferation of human renal cancer cells (RC); assay type: cell-based; details: 5 μg/ml, 37° C.; for Rate of suppression (%): RC cell
Protocol: as §2, §4, §5

[2] = test system: 3T3 SV-40 cells vs 3T3 cells; test: Intaking of test substance by 3T3 SV-40 cells compared to 3T3 cells, fluorescence microscope; assay type: cell-based, mouse
Protocol: Intaking of one of the present substances, 3-dansyloxyestradiol-17β-[[4-[p-{bis(2-chloroethyl)amino}phenyl]butyryloxy]]acetate, by mouse fibroblasts (3T3) and mouse transformed fibroblasts by SV-40 virus (3T3 SV-40) was examined with a fluorescence microscope under the following conditions:
Concentration of the test substance: 10 and 50 μg/ml
pH of culture medium: 6.5 and 7.8
Number of implanted cells: 2×10^4 cells/ml
Temperature and days of incubation: 37° C. for 5 days
Fixation: by aqueous 2.5% glutaraldehyde phosphate buffer for 90 minutes
Examination: by using a microscope (made by Olympus, BHS-RFK) with an exciting filter UGI and auxiliary absorption filter Y-475.
In the similar manner to that in Example 6, intaking of one of the present substances, 3-dansyloxyestradiol-17β-[[2-[p-{bis(2-chloroethyl)amino}phenyl]acetoxy]]acetate by mouse fibroblast (3T3) and mouse transformed fibroblast by SV-40 virus (3T3 SV-40) was studied.

[3] = test system: human renal cancer cells (RC) vs normal human renal cells (FLOW 4000); test: Intaking of test substance by RC cells compared to FLOW 4000 cells, fluorescence microscope; assay type: cell-based; details: Example 8; 37° and 40° C. incubation
Protocol: In the similar manner to that in Example 7, intaking of one of the present substances, 3-dansyloxyestradiol-17β-[[4-[p-{bis(2-chloroethyl)amino}phenyl]butyryloxy]]acetate by the normal human renal cells (FLOW 4000) and the human renal cancer cells (RC) was examined by using the same fluorescence microscope as in Example 7. The incubation of the implanted cells was carried out at 37° and 40° C.

mouse = details: for reference; cited from earlier work
[4] = pH 6.7, 3 days, 37° C. (Example 6)
[5] = pH 6.7, 5 days, 37° C. (Example 6)

Structure (SMILES): CN(C)c1cccc2c(S(=O)(=O)Oc3ccc4c(c3)CC[C@@H]3[C@@H]4CC[C@]4(C)[C@@H](OC(=O)COC(=O)c5ccc(N(CCCl)CCCl)cc5)CC[C@@H]34)cccc12 [3-dansyloxyestradiol-17β-[[1-[p-{bis(2-chloroethyl)amino}phenyl]carbonyloxy]]acetate]
- emission fluorescence ([1]; excitation light 358 nm): 521 nm

Structure (SMILES): CN(C)c1cccc2c(S(=O)(=O)Oc3ccc4c(c3)CC[C@@H]3[C@@H]4CC[C@]4(C)[C@H](OC(=O)COC(=O)CCCc5ccc(N(CCCl)CCCl)cc5)CC[C@@H]34)cccc12 [3-dansyloxyestradiol-17α-[[4-[p-{bis(2-chloroethyl)amino}phenyl]butyryloxy]]acetate]
- emitted light wave length ([1]; excitation light 357 nm): 525 nm

Structure (SMILES): CN(C)c1cccc2c(S(=O)(=O)Oc3ccc4c(c3)CC[C@@H]3[C@@H]4CC[C@]4(C)[C@@H](OC(=O)COC(=O)CCCc5ccc(N(CCCl)CCCl)cc5)CC[C@@H]34)cccc12 [3-dansyloxyestradiol-17β-[[4-[p-{bis(2-chloroethyl)amino}phenyl]butyryloxy]]acetate]
- Rate of suppression (%) (3T3 cells; pH 6.5, 3 days, 37° C.): 16.8%
- Rate of suppression (%) (3T3 cells; pH 6.5, 6 days, 37° C.): 14.76%
- Rate of suppression (%) (3T3 cells; pH 7.0, 3 days, 37° C.): 6.45%
- Rate of suppression (%) (3T3 cells; pH 7.0, 6 days, 37° C.): 20.03%
- Rate of suppression (%) (3T3 cells; pH 7.8, 3 days, 37° C.): 7.87%
- Rate of suppression (%) (3T3 cells; pH 7.8, 6 days, 37° C.): 11.30%
- Rate of suppression (%) (3T3 SV-40 cells; pH 6.5, 3 days, 37° C.): 64.19%
- Rate of suppression (%) (3T3 SV-40 cells; pH 6.5, 6 days, 37° C.): 91.60%
- Rate of suppression (%) (3T3 SV-40 cells; pH 7.0, 3 days, 37° C.): 55.80%
- Rate of suppression (%) (3T3 SV-40 cells; pH 7.0, 6 days, 37° C.): 85.88%
- Rate of suppression (%) (3T3 SV-40 cells; pH 7.8, 3 days, 37° C.): 31.60%
- Rate of suppression (%) (3T3 SV-40 cells; pH 7.8, 6 days, 37° C.): 38.80%
- activity of suppressing the proliferation of transformed cells by SV-40 virus (in words) (3T3 SV-40 cells; Example 4, pH range of from 6.5 to 7.8, 5 μg/ml): clearly showed an activity of suppressing the proliferation of transformed cells by SV-40 virus
- Rate of suppression (%) (FLOW 4000 cell; pH 6.5, 6 days): 27.83%
- Rate of suppression (%) (FLOW 4000 cell; pH 7.0, 6 days): 14.00%
- Rate of suppression (%) (FLOW 4000 cell; pH 7.8, 6 days): -1.10%
- suppression of the proliferation of human renal cancer cells (RC) (in words) (RC cell; Example 5, 6 days): clearly suppressed the proliferation of the human renal cancer cells (RC)
- Rate of suppression (%) (RC cell; pH 6.5, 6 days): 54.54%
- Rate of suppression (%) (RC cell; pH 7.0, 6 days): 46.68%
- Rate of suppression (%) (RC cell; pH 7.8, 6 days): 22.39%
- Intaking of the test substance by 3T3 SV-40 cells compared to 3T3 cells ([2]; Example 7, 10 and 50 μg/ml, pH 6.5 and 7.8, 37° C., 5 days): remarkably recognized as compared to that by 3T3 cells
- Intaking of the test substance by RC cells compared to FLOW 4000 cells [3]: remarkable as compared to that by the normal human cells (FLOW 4000) at both 37° and 40 °C
- emitted light wave length ([1]; excitation light 356 nm): 520 nm

Structure (SMILES): O=C(O)CCCc1ccc(N(CCCl)CCCl)cc1 [chlorambucil]
- LD50 (mouse): 20 mg/kg body weight

Structure (SMILES): CN(C)c1cccc2c(S(=O)(=O)Oc3ccc4c(c3)CC[C@@H]3[C@@H]4CC[C@]4(C)[C@@H](OC(=O)COC(=O)Cc5ccc(N(CCCl)CCCl)cc5)CC[C@@H]34)cccc12 [3-Dansyloxyestradiol-17β-[[2-[p-{bis(2-chloroethyl)amino}phenyl]acetoxy]]acetate]
- Rate of suppression (%) (3T3 cells; [4]): 25.24%
- Rate of suppression (%) (3T3 cells; [5]): 53.28%
- Rate of suppression (%) (3T3 SV-40 cells; [4]): 55.72%
- Rate of suppression (%) (3T3 SV-40 cells; [5]): 85.86%
- Intaking of the test substance by 3T3 SV-40 compared to 3T3 ([2]; Example 9, FIG. 8: 5 μg/ml, pH 6.5, 4 days): remarkable as compared to that by 3T3
